Measurements: patent publication US11771765B2, “Light augmented treatment method” (The Procter & Gamble Company, priority 2019, dated 2023)

Tested on: C. albicans cells
Assay: Candida albicans spot plating after Piroctone Olamine and 409 nm light (Table 4)
Assay type: cell-based
Design: key to spot plated growth (score): +: a continuous fungal lawn; +/−: a lawn with breaks allowing the agar to show; −: 0 to 5 colonies
Procedure: Potentiation of Piroctone Olamine by light exposure is also observed in Candida albicans. […] Cells are then diluted as indicated in the left column, and spot plated. Resulting growth is then scored, as explained above.

**Q.** `Cc1cc(CC(C)CC(C)(C)C)n(O)c(=O)c1.NCCO` (stereo not shown) [Piroctone Olamine, 1-Hydroxy-4-methyl-6-(2,4,4-trimethylpentyl)-2-pyridone monoethanolamine salt] was tested. Which “spot plated growth (score)” value (6 ppm, dilution 1:2, 15 minute 409 nm light) did it give?
**A.** Its value is “+”.

**Q.** What about the “spot plated growth (score)” value (6 ppm, dilution 1:2, Dark) of the same compound?
**A.** Its value is “+”.

**Q.** What about the “spot plated growth (score)” value (6 ppm, dilution 1:20, 15 minute 409 nm light) of the same compound?
**A.** Its value is “+”.

**Q.** What about the “spot plated growth (score)” value (6 ppm, dilution 1:20, Dark) of the same compound?
**A.** Its value is “+”.

**Q.** What about the “spot plated growth (score)” value (6 ppm, dilution 1:200, 15 minute 409 nm light) of the same compound?
**A.** Its value is “+/−”.

**Q.** And the “spot plated growth (score)” value (6 ppm, dilution 1:200, Dark)?
**A.** Its value is “+/−”.

**Q.** And the “spot plated growth (score)” value (6 ppm, dilution 1:2000, 15 minute 409 nm light)?
**A.** Its value is “+/−”.

**Q.** And the “spot plated growth (score)” value (6 ppm, dilution 1:2000, Dark)?
**A.** The value was “+/−”.

**Q.** What about the “growth with the addition of light” value (12 and 24 ppm dose, 409 nm light 15 min) of the same compound?
**A.** The value was “complete inhibition of growth”.

**Q.** And the “spot plated growth (score)” value (12 ppm, dilution 1:2, 15 minute 409 nm light)?
**A.** The value was “+”.

**Q.** What about the “spot plated growth (score)” value (12 ppm, dilution 1:2, Dark) of the same compound?
**A.** The value was “+”.

**Q.** And the “spot plated growth (score)” value (12 ppm, dilution 1:20, 15 minute 409 nm light)?
**A.** Its value is “+/−”.

**Q.** What about the “spot plated growth (score)” value (12 ppm, dilution 1:20, Dark) of the same compound?
**A.** The value was “+”.

**Q.** What about the “spot plated growth (score)” value (12 ppm, dilution 1:200, 15 minute 409 nm light) of the same compound?
**A.** Its value is “+/−”.

**Q.** What about the “spot plated growth (score)” value (12 ppm, dilution 1:200, Dark) of the same compound?
**A.** Its value is “+/−”.

**Q.** And the “spot plated growth (score)” value (12 ppm, dilution 1:2000, 15 minute 409 nm light)?
**A.** The value was “− (0 to 5 colonies)”.

**Q.** And the “spot plated growth (score)” value (12 ppm, dilution 1:2000, Dark)?
**A.** Its value is “+/−”.

**Q.** And the “spot plated growth (score)” value (24 ppm, dilution 1:2, 15 minute 409 nm light)?
**A.** Its value is “+”.

**Q.** What about the “spot plated growth (score)” value (24 ppm, dilution 1:2, Dark) of the same compound?
**A.** Its value is “+”.

**Q.** And the “spot plated growth (score)” value (24 ppm, dilution 1:20, 15 minute 409 nm light)?
**A.** Its value is “+/−”.

**Q.** What about the “spot plated growth (score)” value (24 ppm, dilution 1:20, Dark) of the same compound?
**A.** The value was “+”.

**Q.** What about the “spot plated growth (score)” value (24 ppm, dilution 1:200, 15 minute 409 nm light) of the same compound?
**A.** Its value is “+/−”.

**Q.** And the “spot plated growth (score)” value (24 ppm, dilution 1:200, Dark)?
**A.** Its value is “+/−”.

**Q.** And the “spot plated growth (score)” value (24 ppm, dilution 1:2000, 15 minute 409 nm light)?
**A.** Its value is “− (0 to 5 colonies)”.

**Q.** And the “spot plated growth (score)” value (24 ppm, dilution 1:2000, Dark)?
**A.** Its value is “+/−”.
